Like-named read-outs stand apart in the source and are kept apart here.
What was measured:
[1] = Anti-radical activity (decay of the DPPH radical); assay type: biochemical; conditions: for Anti-radical (skin protective): 24 hours
Description: With regard to assays aimed at evaluating anti-radical activity, a chemical test was used where the decay of the diphenylpicrylhydrazyl (DPPH) radical is assessed in the absence or in the presence of the test substances. Indeed, the DPPH radical is used to test the ability of substances to act as free radical scavengers. DPPH in solution has a purple colour with a maximum absorbance peak at 517 nm which changes to yellow-colourless when this radical extracts a hydrogen atom from a radical scavenger to give rise to the reduced form DPPH-H. The assay has been conducted in quadruplicate in 96 well microplates (SARSTEDT Tissue Culture Plate 96-well flat bottom cell+). 50 µl of an ethanol solution of the test substance at 2X concentration and then 50 µl of a 200 µM solution of DPPH (MW 168,18, Aldrich 2,2-di(4-tert-octylphenyl)-1-picrylhydrazyl, free radical Lot# MKBF7574V Cat N° 257621-100 mg) have been added to each well of the microplate. A positive control consisting of 0.1 mM vitamin C and a negative control consisting of ethanol alone were included in each microplate. After 30 minutes from the addition of DPPH, photographs of the plates were taken (Canon PowerShot A610 5.0 Mpixels) and read spectrophotometrically at 530 nm.
Based on the analysis of the results reported in Table 9, some substances were selected for further characterisation of their anti-radical activity. For the selected substances, dose-activity curves were obtained and the IC50 value were computed using a non-linear regression model with the Hill equation at variable slope. Such substances had been selected due to both their anti-radical potential and the easiness of their isolation/production. The selection of substances was made in view of cosmetics applications. Moreover their activity on human dermal fibroblasts (HDF) is expected to be useful also for the development of dermatological medications. The selected substances are discussed below.

[2] = tested on: Human dermal fibroblasts (HDF); assay: Mitochondrial dehydrogenase activity (WST-1 formazan assay) in HDF cells; conditions: for Revitalizing agent: 24 hours; for activity at 1 µM / activity at 10 µM: Homo sapiens, Fibroblast, read-out: % mitochondrial dehydrogenase activity ± SD
HDF cells [3] = assay: Evaluation of cell proliferation (counting of Sirius Red stained cells in photographs); conditions: 24 hours
interleukin 6 (IL-6) = assay: Inflammatory cytokines in cell supernatant (Mosaic ELISA microarray): IL-6; assay type: cell-based, Human; conditions: for IL-6 ng/(ml* No. of cells from photo) ± SD: 24 hours; for IL-6 production (effect in words): 1-10 µM
Description: (§1) The inflammatory cytokines, CD40 ligand (CD40L), interferon γ (INF-γ), interleukin 1α (IL-1α), interleukin 1β (IL-1β), interleukin 6 (IL-6), interleukin 8 (IL-8), interleukin 17 (IL-17) and tumour necrosis factor α (TNF-α) were determined qualitatively and quantitatively. Each measurement was performed in duplicate using a Mosaic™ ELISA protein microarray assay system from R&D System in accordance with the supplier's instructions. Furthermore, with the aim of obtaining a correlation model between light signal intensity and cytokine concentration, a calibration curve using 6 concentrations was performed for each of them. Analysis of the data was performed using the dedicated Q-View™ Imager software package from Quansys Biosciences

interleukin 1β (IL-1β) = assay: Inflammatory cytokines in cell supernatant (Mosaic ELISA microarray): IL-1β; assay type: cell-based, Human; conditions: for IL-1β ng/(ml* No. of cells from photo) ± SD: 24 hours
Description: as §1

HDF cells [4] = assay: Summary of uses and toxic effects deduced from the cell assays (Table 1); assay type: cell-based, Human; conditions: for Anti-fibrotic (prevention of scar formation, also from acne) / Cytoprotective (antioxidant, anti-inflammatory and anti-ageing; useful also in the treatment of acne) / Cytotoxic / Irritant / Wound-healing: 24 hours
Description: Antiradical (skin protective): this is deduced from the free radical scavenger effects.
Revitalizing: this is deduced from the increased mitochondrial dehydrogenase effect.
Cytoprotective, with regard to oxidative damage (antioxidant, anti-inflammatory and anti-ageing): this is deduced from antagonising the stimulation of IL-1β and/or IL-6 induced by 100 µM H2O2 and from the absence of changes in cell morphology similar to the ones due to cell senescence.
Wound healing: this is deduced from the effect of inhibiting the production of IL-1β and by the effect of stimulating cell proliferation under standard growth conditions.
Cytotoxicity: this is deduced from the effect of reducing mitochondrial dehydrogenase activity or from the presence of morphologies characteristic of cell senescence.
Irritation: this is deduced from the effect of increased production of IL-6 and/or IL-1β under standard growth conditions.
Said uses in the fields of medicine and cosmetics or the toxic effects of the substances of the invention at a given dosage, for 24 hours, are summarized in Table 1 below.

[5] = tested on: collagen produced by HDF cells; assay: Quantity of collagen produced by the cells (elution of Sirius Red)
[6] = Dose 1 µm (coptisine: 1 pm [sic])

## COc1ccc2c(c1OC)CN1CCc3cc4c(cc3[C@@H]1C2)OCO4 [canadine]
[1]; 1 mM, 30 minutes
  % DPPH activity: 103%
[1]; [6]
  Anti-radical (skin protective): No
[1]; Dose 10 µm
  Anti-radical (skin protective): No
[2]
  concentrations below which no significant effects on mitochondrial dehydrogenase activity are shown: below 0.1 µM
[2]; [6]
  Revitalizing agent: Yes
[2]; Dose 10 µm
  Revitalizing agent: Yes
[2]; 18 h
  activity at 1 µM: 127 ± 3.64%
  activity at 10 µM: 130 ± 32.4%
[2]; 42 h
  activity at 1 µM: 101 ± 10.6%
  activity at 10 µM: 124 ± 5.34%
[2]; 46 h
  activity at 1 µM: 106 ± 5.25%
  activity at 10 µM: 130 ± 11.1%
[2]; between 0.1 and 100 µM, exposure time 18 and 42 h
  mitochondrial dehydrogenase activity (effect in words): tendency to increase in a dose-dependent manner
[2]; fibroblast cells, higher doses
  mitochondrial dehydrogenase activity (effect in words): inhibit mitochondrial dehydrogenase activity
[2]; fibroblast cells, low dosage
  mitochondrial dehydrogenase activity (effect in words): stimulate mitochondrial dehydrogenase activity
HDF cells [3]; 1 µM, 34 ng/ml TGF-β1
  No. of cells from photo ± SD: 206±40
HDF cells [3]; 1 µM, 100 µM H2O2
  No. of cells from photo ± SD: 253±32
HDF cells [3]; 1 µM, Standard conditions
  No. of cells from photo ± SD: 207±12
HDF cells [3]; 10 µM, 34 ng/ml TGF-β1
  No. of cells from photo ± SD: 138±3
HDF cells [3]; 10 µM, 100 µM H2O2
  No. of cells from photo ± SD: 188±25
HDF cells [3]; 10 µM, Standard conditions
  No. of cells from photo ± SD: 138±5
Interleukin 6 (IL-6); 1 µM, 34 ng/ml TGF-β1
  IL-6 ng/(ml* No. of cells from photo) ± SD: 451±121 ng/(ml* No. of cells from photo)
Interleukin 6 (IL-6); 1 µM, 100 µM H2O2
  IL-6 ng/(ml* No. of cells from photo) ± SD: 584±19 ng/(ml* No. of cells from photo)
Interleukin 6 (IL-6); 1 µM, Standard conditions
  IL-6 ng/(ml* No. of cells from photo) ± SD: 405±8 ng/(ml* No. of cells from photo)
Interleukin 6 (IL-6); 10 µM, 34 ng/ml TGF-β1
  IL-6 ng/(ml* No. of cells from photo) ± SD: 724±43 ng/(ml* No. of cells from photo)
Interleukin 6 (IL-6); 10 µM, 100 µM H2O2
  IL-6 ng/(ml* No. of cells from photo) ± SD: 718±63 ng/(ml* No. of cells from photo)
Interleukin 6 (IL-6); 10 µM, Standard conditions
  IL-6 ng/(ml* No. of cells from photo) ± SD: 508±43 ng/(ml* No. of cells from photo)
Interleukin 6 (IL-6); 34 ng/ml TGF-β1
  IL-6 production (effect in words): antagonizes the production of IL-6
Interleukin 6 (IL-6); 100 µM H2O2
  IL-6 production (effect in words): antagonizes the production of IL-6
Interleukin 6 (IL-6); standard conditions
  IL-6 production (effect in words): inhibits the production of IL-6
Interleukin 1β (IL-1β); 1 µM, 34 ng/ml TGF-β1
  IL-1β production (effect in words): antagonizes the production of IL-1β
  IL-1β ng/(ml* No. of cells from photo) ± SD: 116±19 ng/(ml* No. of cells from photo)
Interleukin 1β (IL-1β); 1 µM, 100 µM H2O2
  IL-1β production (effect in words): antagonizes the production of IL-1β
  IL-1β ng/(ml* No. of cells from photo) ± SD: 90±3 ng/(ml* No. of cells from photo)
Interleukin 1β (IL-1β); 1 µM, Standard conditions
  IL-1β ng/(ml* No. of cells from photo) ± SD: 81±2 ng/(ml* No. of cells from photo)
Interleukin 1β (IL-1β); 1 µM, standard conditions
  IL-1β production (effect in words): inhibits the production of IL-1β
Interleukin 1β (IL-1β); 10 µM, 34 ng/ml TGF-β1
  IL-1β production (effect in words): antagonizes the production of IL-1β
  IL-1β ng/(ml* No. of cells from photo) ± SD: 173±14 ng/(ml* No. of cells from photo)
Interleukin 1β (IL-1β); 10 µM, 100 µM H2O2
  IL-1β production (effect in words): antagonizes the production of IL-1β
  IL-1β ng/(ml* No. of cells from photo) ± SD: 132±138 ng/(ml* No. of cells from photo)
Interleukin 1β (IL-1β); 10 µM, Standard conditions
  IL-1β ng/(ml* No. of cells from photo) ± SD: 109±1 ng/(ml* No. of cells from photo)
Interleukin 1β (IL-1β); 10 µM, standard conditions
  IL-1β production (effect in words): stimulates the production of IL-1β
HDF cells [4]; [6]
  Anti-fibrotic (prevention of scar formation, also from acne): Yes (↓collagen, ↓IL-6, ↓IL-1β)
  Cytoprotective (antioxidant, anti-inflammatory and anti-ageing; useful also in the treatment of acne): Yes (↓IL-6, ↓IL-1β)
  Cytotoxic: No
  Irritant: No
  Wound-healing: Yes (↓IL-1β)
HDF cells [4]; Dose 10 µm
  Anti-fibrotic (prevention of scar formation, also from acne): No
  Cytoprotective (antioxidant, anti-inflammatory and anti-ageing; useful also in the treatment of acne): No
  Cytotoxic: No
  Irritant: Yes (↓IL-1β)
  Wound-healing: No
HDF cells [4]; exposure for 24 hours
  concentrations at which no toxic (cytotoxic and irritant) effects are shown: less than or equal to 1 µM
[5]; 1 µM, standard conditions
  collagen production (effect in words): no evident effect on the modulation of collagen production
[5]; 10 µM, standard conditions
  collagen production (effect in words): collagen production stimulation effect
[5]; 1-10 µM (1 µM and 10 µM), 34 ng/ml TGF-β1
  collagen production (effect in words): antagonizes the stimulation of collagen induced by 34 ng/ml TGF-β1
[5]; 1-10 µM (1 µM and 10 µM), 100 µM H2O2
  collagen production (effect in words): inhibits collagen production

Source: patent publication EP2787958B1, “CHELIDONIUM MAJUS EXTRACTS AND THEIR USE IN THE TREATMENT OF SKIN DISORDERS AND PROMOTION OF SKIN REGENERATION” (priority 2011, dated 2013)
